The source of these data is patent US6683055B1, “Low molecular weight inhibitors of complement proteases” (BASF Aktiengesellschaft, priority 1999, dated 2004).

Structures can show the parent of a compound that is named as a salt.

Assay type in all cases: biochemical
Assay [1] concerns the target T1, C1s from human plasma, activated, two-chain form (Homo sapiens, UniProt P09871).
T1 construct: from tissue; host or cells: human plasma
T1 sequence (P09871 16-437 partner limits assumed): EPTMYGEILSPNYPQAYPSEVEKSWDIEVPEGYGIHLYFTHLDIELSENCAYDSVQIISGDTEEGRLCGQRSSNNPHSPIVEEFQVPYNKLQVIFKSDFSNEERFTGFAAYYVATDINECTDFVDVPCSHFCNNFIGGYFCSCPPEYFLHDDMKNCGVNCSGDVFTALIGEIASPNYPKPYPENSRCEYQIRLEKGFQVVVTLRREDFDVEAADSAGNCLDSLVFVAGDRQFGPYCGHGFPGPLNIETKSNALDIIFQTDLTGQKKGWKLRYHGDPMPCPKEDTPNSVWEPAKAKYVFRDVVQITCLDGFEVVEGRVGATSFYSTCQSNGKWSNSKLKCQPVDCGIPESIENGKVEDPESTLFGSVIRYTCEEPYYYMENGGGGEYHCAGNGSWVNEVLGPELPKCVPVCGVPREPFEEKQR
T1 sequence (P09871 438-688 limits assumed): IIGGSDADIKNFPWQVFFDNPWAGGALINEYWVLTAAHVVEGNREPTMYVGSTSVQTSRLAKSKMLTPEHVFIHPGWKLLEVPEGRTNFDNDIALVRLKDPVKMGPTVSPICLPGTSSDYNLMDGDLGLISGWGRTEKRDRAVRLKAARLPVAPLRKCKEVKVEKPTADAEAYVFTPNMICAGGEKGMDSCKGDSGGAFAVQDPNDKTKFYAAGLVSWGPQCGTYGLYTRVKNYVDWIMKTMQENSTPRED
Briefly: Color substrate test for C1s inhibition (Example B). To be noted: amidolytic C1s activity, substrate Cbz-Gly-Arg-S-Bzl; read-out: C1S IC50 according to Example B. An excerpt: Material and Methods: Color Subrate Test for C1s Inhibition

Assay [2] addresses T2, C1r from human plasma, activated, two-chain form (Homo sapiens, UniProt P00736).
T2 construct: from tissue; host or cells: human plasma
T2 sequence (P00736 18-463 partner limits assumed): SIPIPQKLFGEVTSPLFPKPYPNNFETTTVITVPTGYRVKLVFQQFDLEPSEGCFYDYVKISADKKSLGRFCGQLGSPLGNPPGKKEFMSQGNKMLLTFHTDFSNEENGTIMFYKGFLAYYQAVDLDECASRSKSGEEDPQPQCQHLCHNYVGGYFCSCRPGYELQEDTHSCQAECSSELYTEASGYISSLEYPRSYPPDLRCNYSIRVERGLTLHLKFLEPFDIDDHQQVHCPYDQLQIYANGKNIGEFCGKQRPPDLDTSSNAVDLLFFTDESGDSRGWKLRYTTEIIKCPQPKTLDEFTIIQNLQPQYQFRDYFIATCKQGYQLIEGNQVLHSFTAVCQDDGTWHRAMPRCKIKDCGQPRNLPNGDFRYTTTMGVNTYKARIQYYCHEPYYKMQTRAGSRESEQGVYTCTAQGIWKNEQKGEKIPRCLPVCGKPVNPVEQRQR
T2 sequence (P00736 464-705 limits assumed): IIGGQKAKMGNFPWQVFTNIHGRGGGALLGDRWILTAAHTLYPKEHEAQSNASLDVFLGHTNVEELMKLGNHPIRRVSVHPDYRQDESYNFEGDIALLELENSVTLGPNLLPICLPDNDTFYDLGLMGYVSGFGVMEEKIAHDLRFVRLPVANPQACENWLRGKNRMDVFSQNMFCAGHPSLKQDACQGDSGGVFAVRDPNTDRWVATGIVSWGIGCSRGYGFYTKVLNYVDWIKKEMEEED
Briefly: Color substrate test for C1r inhibition (Example A). To be noted: amidolytic C1r activity, substrate Cbz-Gly-Arg-S-Bzl; read-out: C1R IC50 according to Example A. An excerpt:
Color Substrate Test for C1r Inhibition

In assay [3] the target is T3, factor D (Homo sapiens, UniProt P00746).
T3 construct: purchased Calbiochem 341273
Briefly: Inhibition of the protease factor D (Example D). The conditions noted are these: substrate Z-Lys-SBzl, run along as inhibitor in the test. An excerpt:
Example D Testing of Inhibitors for Inhibition of the Protease Factor D In the alternative route of the complement system, factor D performs a central function. Owing to the low plasma concentration of factor D, the enzymatic step involving the cleavage of factor B by factor D constitutes the rate-determining step in the alternative route of complement activation. Owing to the limiting role which this enzyme plays in the alternative route, factor D is a target for the inhibition of the complement system. The commercial substrate Z-Lys-SBzl*HCl is converted by the enzyme factor D (literature: Kam, C. M. et al., J. Biol. Chem. 262, 1987, 3444-3451). The detection of the cleaved substrate is effected by reaction with Ellmann's reagent. The product formed is detected spectrophotometrically. The reaction can be monitored online. This permits measurements of enzyme kinetics. [table] The batches are pipetted together into microtiter plates. After mixing of buffer, substrate and Ellmann's reagent (possibly inhibitors), the enzyme reaction is started by adding in each case 5 μl of factor D. Incubation takes place at room temperature for 60 minutes. Measurement at 405 nm for 1 hour at 3 minute intervals The result is plotted graphically. […]

T3 sequence (P00746 26-253): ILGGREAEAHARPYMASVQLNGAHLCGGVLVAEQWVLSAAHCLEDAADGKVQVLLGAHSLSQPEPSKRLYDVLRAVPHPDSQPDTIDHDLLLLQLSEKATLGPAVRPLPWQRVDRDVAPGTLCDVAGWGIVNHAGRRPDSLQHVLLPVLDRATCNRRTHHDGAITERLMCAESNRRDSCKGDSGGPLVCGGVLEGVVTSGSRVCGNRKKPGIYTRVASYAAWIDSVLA

With `N=C(N)c1ccc(CNC(=O)[C@@H]2CCN2C(=O)[C@H](NCC(=O)O)C2CCCCC2)s1` [Example 31, HOOC—CH2-(D)Chg-Aze-NH-CH2-5-(2-am)-thioph], the figures for the IC50 in assay [1] and in assay [2] were 10 µM and 3 µM, respectively.

On to `N=C(N)c1ccc(CNC(=O)[C@@H]2C=CCN2C(=O)[C@@H](CC2CCCCC2)NCC(=O)O)s1` [Example 32, HOOC—CH2-(D)Cha-Pyr-NH—CH2-5-(2-am)-thioph.CH3COOH], for which the values for the IC50 in assay [1] and in assay [2] were 30 µM and 10 µM, respectively. Consider `N=C(N)c1ccc(CNC(=O)[C@@H]2CSCN2C(=O)[C@@H](CC2CCCCC2)NCC(=O)O)s1` [Example 33, HOOC—CH2-(D)Cha-Thz-4-CO—NH—CH2-5-(2-am)-thioph.2HCl], for which the half-inhibitory concentration (IC50) in assay [1] and in assay [2] was 40 µM throughout.

Regarding `N=C(N)c1coc(CNC(=O)[C@@H]2CCCN2C(=O)[C@@H](CC2CCCCC2)NCC(=O)O)c1` [Example 34, HOOC—CH2-(D)Cha-Pro-NH—CH2-5-(3-am)-fur.CH3COOH], the figures for the 50% inhibitory concentration (IC50) in assay [1] and in assay [2] were 20 µM and 70 µM, respectively. Regarding `N=C(N)c1csc(CNC(=O)[C@@H]2C=CCN2C(=O)[C@@H](CC2CCCCC2)NCC(=O)O)c1` [Example 38, HOOC—CH2-(D)Cha-Pyr-NH—CH2-5-(3-am)-thioph.CH3COOH], the IC50 is 5 µM in assay [1] and 10 µM in assay [2]. Taken in the same sequence, the figures for `N=C(N)c1csc(CNC(=O)[C@@H]2CCN2C(=O)[C@H](NCC(=O)O)C2CCCCC2)c1` [Example 39, HOOC—CH2-(D)Chg-Aze-NH—CH2-5-(3-am)-thioph] were 10 µM and 2 µM.

For `N=C(N)c1csc(CNC(=O)[C@@H]2C=CCN2C(=O)C(NCC(=O)O)C2CCCCCC2)c1` (some centres unmarked) [Example 41, HOOC—CH2-Cheg-Pyr-NH—CH2-5-(3-am)-thioph.CH3COOH], the IC50 in assay [1] and in assay [2] was 2 µM in each case. `N=C(N)c1csc(CNC(=O)[C@@H]2C=CCN2C(=O)C(NCC(=O)O)C2CCCC2)c1` (stereo partly drawn) [Example 42, HOOC—CH2-Cpg-Pyr-NH—CH2-5-(3-am)-thioph.CH3COOH]: the IC50 in assay [1] is 1 µM; in assay [2] it was 0.7 µM.

For `N=C(N)c1csc(CNC(=O)[C@@H]2CCCN2C(=O)[C@H](NCC(=O)O)C2CCCCC2)c1` [Example 43, HOOC—CH2-(D)Chg-Pro-NH—CH2-5-(3-am).thioph.2HCl], the 50% inhibitory concentration (IC50) in assay [1] came to 10 µM; in assay [2], 6 µM. Taken in the same sequence, the figures for `N=C(N)c1coc(CNC(=O)[C@@H]2C=CCN2C(=O)[C@@H](CC2CCCCC2)NCC(=O)O)c1` [Example 44, HOOC—CH2-(D)Cha-Pyr-NH—CH2-5-(3-am)-fur.CH3COOH] were 3 µM and 40 µM. The matching figures for `N=C(N)c1csc(CNC(=O)C2SCCN2C(=O)[C@H](NCC(=O)O)C2CCCCC2)c1` (stereo partly drawn) [Example 45, HOOC—CH2-(D)Chg-Thz-2-CO—NH—CH2-5-(3-am)-thioph]: 20 µM and 6 µM. Taken in the same sequence, the figures for `N=C(N)c1csc(CNC(=O)C2SCCN2C(=O)[C@@H](CC2CCCCC2)NCC(=O)O)c1` (stereo partly drawn) [Example 46, HOOC—CH2-(D)Cha-Thz-2-CO—NH—CH2-5-(3-am)-thioph.2HCl] were 20 µM and 40 µM. For the molecule `N=C(N)c1csc(CNC(=O)[C@@H]2CC3CCCCC3N2C(=O)[C@@H](CC2CCCCC2)NCC(=O)O)c1` (some centres unmarked) [Example 47, HOOC—CH2-(D)Cha-(L)Ohi-2-CO—NH—CH2-5-(3-am)-thioph.HCl], the 50% inhibitory concentration (IC50) was 50 µM in assay [1] and 10 µM in assay [2]. Consider `N=C(N)c1csc(CNC(=O)[C@@H]2CC3CCCCC3N2C(=O)[C@H](NCC(=O)O)C2CCCCC2)c1` (some centres unmarked) [Example 48, HOOC—CH2-(D)Chg-(L)Ohi-2-CO—NH—CH2-5-(3-am)-thioph.HCl], for which the IC50 came to 30 µM in assay [1] and 50 µM in assay [2]. The matching figures for `N=C(N)c1csc(CNC(=O)C2C=CCN2C(=O)C(NCC(=O)O)C2CCCCC2)c1Cl` (stereo not drawn) [Example 49, HOOC—CH2-(D)Chg-Pyr-NH—CH2-5-(4-Cl-3-am)-thioph.CH3COOH]: 1 µM and 1 µM. On to `N=C(N)c1csc(CNC(=O)C2C=CCN2C(=O)C(CC2CCCCC2)NCC(=O)O)c1Cl` (stereo not drawn) [Example 50, HOOC—CH2(D)Cha-Pyr-NH—CH2-5-(4-Cl-3-am)-thioph.CH3COOH], for which the half-maximal inhibitory concentration (IC50) in assay [1] came to 3 µM; in assay [2], 20 µM. Taken in the same sequence, the figures for `Cc1c(C(=N)N)csc1CNC(=O)[C@@H]1C=CCN1C(=O)[C@H](NCC(=O)O)C1CCCCC1` [Example 51, HOOC—CH2-(D)Chg-Pyr-NH—CH2-5-(4-Me-3-am)-thioph.CH3COOH] were 3 µM and 40 µM. Turning to `N=C(N)c1ccc2cc(OC(=O)c3ccc(N=C(N)N)cc3)ccc2c1` [FUT-175], the “inhibition of factor D” value in assay [3] is recorded as “effective inhibitor”. Turning to “HOOC—CH2-(D)Cha-Pyr-NH—CH2-5-(3-Me-2-am)-thioph.CH3COOH [Example 53]”, the IC50 in assay [1] was 20 µM; in assay [2], 8 µM. Taken in the same sequence, the figures for “HOOC—CH2-(D,L)Cpg-Pyr-NH—CH2-5-(3-Me-3-am)-thioph.CH3COOH [Example 52]” were 4 µM and 10 µM. Taken in the same sequence, the figures for “HOOC—CH2—CH2-(D)Cha-Pro-NH-CH2-5-(2-am)-thioph.CH3COOH [Example 30]” were 5 µM and over 100 µM.
